What all share (type): functional, cell-based
One test deals with Cannabinoid receptor 2 (Homo sapiens, UniProt P34972). The test can be described thus: Agonist activity at human recombinant CB2 receptor expressed in CHO cells assessed as inhibition forskolin-induced cAMP release.
For test [1], the target named is T1, Cannabinoid receptor 1 (Homo sapiens, UniProt P21554). The test can be described thus: Agonist activity at human recombinant CB1 receptor expressed in CHO cells at 10 uM by FLIPR assay.
T1 sequence (P21554 whole entry): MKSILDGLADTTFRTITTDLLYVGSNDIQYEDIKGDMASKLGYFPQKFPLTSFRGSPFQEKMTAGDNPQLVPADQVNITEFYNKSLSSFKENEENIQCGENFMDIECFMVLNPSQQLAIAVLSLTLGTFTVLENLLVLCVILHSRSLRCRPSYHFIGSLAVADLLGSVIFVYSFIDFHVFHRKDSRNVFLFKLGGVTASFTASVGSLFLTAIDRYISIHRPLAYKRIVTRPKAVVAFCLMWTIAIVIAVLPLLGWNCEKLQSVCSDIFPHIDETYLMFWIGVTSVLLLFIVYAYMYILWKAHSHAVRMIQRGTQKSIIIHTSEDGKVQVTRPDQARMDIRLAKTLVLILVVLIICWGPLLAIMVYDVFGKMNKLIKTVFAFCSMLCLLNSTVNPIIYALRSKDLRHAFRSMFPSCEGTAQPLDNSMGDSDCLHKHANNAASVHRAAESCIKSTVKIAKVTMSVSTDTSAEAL
The target of test [2] is T1, Cannabinoid receptor 1. The test can be described thus: Agonist activity at human recombinant CB1 receptor expressed in CHO cells by FLIPR assay.

SMILES strings stand for the structures.

Sequence of Cannabinoid receptor 2 (P34972 whole entry): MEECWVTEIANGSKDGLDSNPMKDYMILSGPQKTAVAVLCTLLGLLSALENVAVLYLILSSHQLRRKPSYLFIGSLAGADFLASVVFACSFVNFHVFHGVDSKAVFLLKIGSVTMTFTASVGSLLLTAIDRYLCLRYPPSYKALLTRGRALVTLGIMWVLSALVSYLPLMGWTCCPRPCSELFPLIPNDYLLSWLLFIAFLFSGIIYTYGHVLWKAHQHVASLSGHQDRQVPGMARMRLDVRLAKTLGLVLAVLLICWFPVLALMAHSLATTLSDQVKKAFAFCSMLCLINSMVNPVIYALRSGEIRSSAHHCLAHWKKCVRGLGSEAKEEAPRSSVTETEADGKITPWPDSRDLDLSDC

As usually defined, the EC50 is the midpoint of the concentration-response curve. Consider `CCCCCN1CCc2c(nc(C(C)(C)C)n2CC2CC2)C1`, for which the EC50 on Cannabinoid receptor 2 is 878 nM. For the molecule `CC(C)(C)C(=O)N1CCc2c(nc(C(C)(C)C)n2CC2CC2)C1`, the EC50 on Cannabinoid receptor 2 came to 320 nM.

Turning to `CC(C)(C)c1nc2c(n1CC1CC1)CCN(S(=O)(=O)c1ccccc1)C2`, the EC50 on Cannabinoid receptor 2 came to 7.9 nM. The Activity at Cannabinoid receptor 1 [1] amounted to 10%. Take `CCCOC(=O)N1CCc2c(nc(CC(C)(C)C)n2CC2CC2)C1`: on Cannabinoid receptor 2, the EC50 is 560 nM. As for `CC(C)(C)c1nc2c(n1CC1CC1)CCN(S(=O)(=O)c1cccnc1)C2`, the EC50 at Cannabinoid receptor 2 stood at 14.2 nM. Also, the Activity at Cannabinoid receptor 1 [1] turned out to be 11%. Consider `CN(Cc1ccccc1)C(=O)N1CCc2c(nc(CC(C)(C)C)n2CC2CC2)C1`, for which the EC50 on Cannabinoid receptor 2 came out at 523 nM. For `Cc1noc(C)c1S(=O)(=O)N1CCc2c(nc(C(C)(C)C)n2CC2CC2)C1`, the EC50 at Cannabinoid receptor 2 is 5.1 nM; at Cannabinoid receptor 1 [2], 7.5 µM. The Activity at Cannabinoid receptor 1 [1] was 66%.

Turning to `CCCN(C)C(=O)N1CCc2c(nc(C(C)(C)C)n2CC2CC2)C1`, on Cannabinoid receptor 2, the EC50 stood at 380 nM.

With `CCCCCN1CCc2c(nc(CC(C)(C)C)n2CC2CC2)C1`, the EC50 on Cannabinoid receptor 2 came to 3000 nM.

In the case of `CCCCCCC(C)(C)c1ccc([C@@H]2C[C@H](O)CC[C@H]2CCCO)c(O)c1`, the Activity at Cannabinoid receptor 1 [1] worked out at 100%.

As for `CN(Cc1ccccc1)C(=O)N1CCc2c(nc(C(C)(C)C)n2CC2CC2)C1`, at Cannabinoid receptor 2, the EC50 was 637 nM. As to `Cc1nocc1S(=O)(=O)N1CCc2c(nc(CC(C)(C)C)n2CC2CC2)C1`, the EC50 on Cannabinoid receptor 2 worked out at 18.5 nM. For the same molecule, on Cannabinoid receptor 1 [1], the Activity was 9%. Take `CC(C)(C)Cc1nc2c(n1CC1CC1)CCN(S(=O)(=O)c1ccccc1)C2`: the EC50 at Cannabinoid receptor 2 amounted to 9.1 nM. Besides, on Cannabinoid receptor 1 [1], the Activity was determined as 9%.

On to `COCCS(=O)(=O)N1CCc2c(nc(CC(C)(C)C)n2CC2CC2)C1`, for which the EC50 at Cannabinoid receptor 2 turned out to be 21.5 nM; at Cannabinoid receptor 1 [2], 14 µM. In addition, the Activity on Cannabinoid receptor 1 [1] came to 37%.

With `COCCS(=O)(=O)N1CCc2c(nc(C(C)(C)C)n2CC2CC2)C1`, at Cannabinoid receptor 2, the EC50 amounted to 26.7 nM. The Activity on Cannabinoid receptor 1 [1] came to 25%. On to `CC(C)(C)Cc1nc2c(n1CC1CC1)CCN(S(=O)(=O)c1cccnc1)C2`, for which the EC50 on Cannabinoid receptor 2 came to 24.5 nM. Moreover, the Activity at Cannabinoid receptor 1 [1] is 4%.

For the molecule `COc1ncc(Br)cc1CN1CCc2c(nc(C(C)(C)C)n2CC2CC2)C1`, on Cannabinoid receptor 2, the EC50 was determined as 295 nM. With `CC(C)(C)Cc1nc2c(n1CC1CC1)CCN(S(C)(=O)=O)C2`, the EC50 at Cannabinoid receptor 2 was determined as 439 nM. Besides, the Activity at Cannabinoid receptor 1 [1] worked out at 9%.

For the molecule `CC(C)(C)c1nc2c(n1CC1CC1)CCN(S(C)(=O)=O)C2`, at Cannabinoid receptor 2, the EC50 was found to be 403 nM. Moreover, on Cannabinoid receptor 1 [1], the Activity was found to be 10%. With `Cc1nocc1S(=O)(=O)N1CCc2c(nc(C(C)(C)C)n2CC2CC2)C1`, the EC50 came to 55.4 nM at Cannabinoid receptor 2 and 18 µM on Cannabinoid receptor 1 [2]. Moreover, the Activity at Cannabinoid receptor 1 [1] worked out at 38%. For the molecule `CC(C)(C)c1nc2c(n1CC1CC1)CCN(S(=O)(=O)Cc1ccccc1)C2`, the EC50 on Cannabinoid receptor 2 stood at 21.8 nM. Further, the Activity at Cannabinoid receptor 1 [1] was 13%. For the molecule `Cc1noc(C)c1S(=O)(=O)N1CCc2c(nc(CC(C)(C)C)n2CC2CC2)C1`, the EC50 at Cannabinoid receptor 2 turned out to be 7 nM. The Activity at Cannabinoid receptor 1 [1] stood at 24%. For `CC(C)(C)Cc1nc2c(n1CC1CC1)CCN(S(=O)(=O)Cc1ccccc1)C2`, in that order: 13.4 nM and 15%. As to `CCCCC(=O)N1CCc2c(nc(CC(C)(C)C)n2CC2CC2)C1`, the EC50 on Cannabinoid receptor 2 turned out to be 1020 nM.

The values above are taken from ChEMBL document CHEMBL1153626, “Rapid assessment of a novel series of selective CB(2) agonists using parallel synthesis protocols: A Lipophilic Efficiency (LipE) analysis” (Bioorg Med Chem Lett, 2009).
